Test results taken from PubChem BioAssay AID248 (DTP/NCI, 2004).
Inconclusive results and toxic doses are left out.

System: L1210 leukemia ip in BDF1 mice, survival T/C
Assay: NCI In Vivo Anticancer Drug Screen. Data for tumor model L1210 Leukemia (intraperitoneal) in B6D2F1 (BDF1) mice
Settings: endpoint: mean survival time, higher = longer survival
Outline: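 In this screen, tumor-bearing mice given compound are compared to those given vehicle, and their survival values are reported as a treated-to-control quotient.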

[1] = dose: 100.0 mg/kg/injection, schedule: Q04DX003 (ip), vehicle: other
[2] = dose: 200.0 mg/kg/injection, schedule: Q04DX003 (ip), vehicle: other
[3] = dose: 100.0 mg/kg/injection, schedule: Q01DX001 (ip), vehicle: saline
[4] = dose: 200.0 mg/kg/injection, schedule: Q01DX001 (ip), vehicle: saline
[5] = dose: 400.0 mg/kg/injection, schedule: Q01DX001 (ip), vehicle: saline

Structure (SMILES): Oc1ccc2ccccc2c1CNc1ccccc1
- T/C [1]: 88 % of control
- T/C [2]: 94 % of control

Structure (SMILES): Clc1ncnc2c1ncn2C1CCCCO1 (stereo unspecified)
- T/C (dose: 31.0 mg/kg/injection, schedule: Q01DX Z (ip), vehicle: other): 101 % of control
- T/C (dose: 62.0 mg/kg/injection, schedule: Q01DX Z (ip), vehicle: other): 103 % of control
- T/C [3]: 91 % of control
- T/C (dose: 100.0 mg/kg/injection, schedule: Q01DX009 (ip), vehicle: saline sonified): 110 % of control
- T/C (dose: 175.0 mg/kg/injection, schedule: Q01DX015 (ip), vehicle: saline): 113 % of control
- T/C [4]: 98 % of control
- T/C (dose: 200.0 mg/kg/injection, schedule: Q01DX009 (ip), vehicle: saline sonified): 118 % of control
- T/C (dose: 265.0 mg/kg/injection, schedule: Q01DX015 (ip), vehicle: saline): 123 % of control
- T/C [5]: 102 % of control
- T/C (dose: 400.0 mg/kg/injection, schedule: Q01DX009 (ip), vehicle: saline sonified): 150 % of control
- T/C (dose: 400.0 mg/kg/injection, schedule: Q01DX015 (ip), vehicle: saline): 123 % of control

Structure (SMILES): CC(=O)C(=O)O
- T/C [3]: 110 % of control
- T/C [4]: 95 % of control
- T/C [5]: 87 % of control

Structure (SMILES): CS(=O)(=O)N(CC(=O)O)Cc1ccc(Cl)cc1
- T/C [1]: 102 % of control
- T/C [2]: 105 % of control
- T/C (dose: 400.0 mg/kg/injection, schedule: Q04DX003 (ip), vehicle: other): 98 % of control

Structure (SMILES): Cc1cn([C@@H]2C[C@H](CO)[C@@H](O)C2)c(=O)[nH]c1=O
- T/C [3]: 105 % of control
- T/C [4]: 110 % of control
- T/C [5]: 107 % of control

Structure (SMILES): N#C/C(=C\c1c[nH]c2ccccc12)c1ccc([N+](=O)[O-])cc1
- T/C (dose: 100.0 mg/kg/injection, schedule: Q04DX002 (ip), vehicle: gum acacia): 95 % of control
- T/C (dose: 200.0 mg/kg/injection, schedule: Q04DX002 (ip), vehicle: gum acacia): 101 % of control

Structure (SMILES): CCOC(=O)CCN1CCCCC1
- T/C (dose: 100.0 mg/kg/injection, schedule: Q01DX009 (ip), vehicle: saline): 101 % of control
- T/C (dose: 100.0 mg/kg/injection, schedule: Q04DX003 (ip), vehicle: saline): 93 % of control
- T/C (dose: 200.0 mg/kg/injection, schedule: Q01DX009 (ip), vehicle: saline): 98 % of control
- T/C (dose: 200.0 mg/kg/injection, schedule: Q04DX003 (ip), vehicle: saline): 97 % of control
- T/C (dose: 400.0 mg/kg/injection, schedule: Q01DX009 (ip), vehicle: saline): 104 % of control
- T/C (dose: 400.0 mg/kg/injection, schedule: Q04DX003 (ip), vehicle: saline): 103 % of control

Structure (SMILES): O=C(Nc1cccc(F)c1)Nc1cccc([N+](=O)[O-])c1
- T/C (dose: 100.0 mg/kg/injection, schedule: Q01DX009 (ip), vehicle: Klucel (hydroxypropylcellulose) (HPC)): 102 % of control
- T/C (dose: 200.0 mg/kg/injection, schedule: Q01DX009 (ip), vehicle: Klucel (hydroxypropylcellulose) (HPC)): 102 % of control
- T/C (dose: 400.0 mg/kg/injection, schedule: Q01DX009 (ip), vehicle: Klucel (hydroxypropylcellulose) (HPC)): 97 % of control

Structure (SMILES): O=C(O)c1ccccc1C(=O)c1ccc(-c2ccccc2)cc1
- T/C (dose: 100.0 mg/kg/injection, schedule: Q01DX001 (ip), vehicle: Klucel (hydroxypropylcellulose) (HPC)): 110 % of control
- T/C (dose: 200.0 mg/kg/injection, schedule: Q01DX001 (ip), vehicle: Klucel (hydroxypropylcellulose) (HPC)): 102 % of control
- T/C (dose: 400.0 mg/kg/injection, schedule: Q01DX001 (ip), vehicle: Klucel (hydroxypropylcellulose) (HPC)): 100 % of control

Structure (SMILES): CC1(c2cccc3ccccc23)OCC2(CCCCC2)CO1
- T/C (dose: 81.3 mg/kg/injection, schedule: Q01DX009 (ip), vehicle: DMSO): 109 % of control
- T/C (dose: 100.0 mg/kg/injection, schedule: Q04DX003 (ip), vehicle: DMSO): 92 % of control
- T/C (dose: 200.0 mg/kg/injection, schedule: Q04DX003 (ip), vehicle: DMSO): 90 % of control
- T/C (dose: 400.0 mg/kg/injection, schedule: Q04DX003 (ip), vehicle: DMSO): 95 % of control

Structure (SMILES): NC(CCl)=NC1CN2CCC1CC2 (stereo unspecified)
- T/C (dose: 25.0 mg/kg/injection, schedule: Q04DX002 (ip), vehicle: saline): 101 % of control
- T/C (dose: 50.0 mg/kg/injection, schedule: Q04DX002 (ip), vehicle: saline): 90 % of control
- T/C (dose: 100.0 mg/kg/injection, schedule: Q04DX002 (ip), vehicle: saline): 102 % of control

Structure (SMILES): COc1n[nH]c(N)n1
- T/C (dose: 100.0 mg/kg/injection, schedule: Q04DX002 (ip), vehicle: saline with Tween-80): 122 % of control
- T/C (dose: 200.0 mg/kg/injection, schedule: Q04DX002 (ip), vehicle: saline with Tween-80): 98 % of control
- T/C (dose: 400.0 mg/kg/injection, schedule: Q04DX002 (ip), vehicle: saline with Tween-80): 105 % of control
